The results in this text go back to patent US12545652B2, “Crystalline forms of a TYK2 inhibitor” (Sareum Limited, priority 2020, dated 2026).

Each structure is given as a SMILES string. Entries after “also recorded” stand apart in the source; their conditions may differ. Where two headings read alike, the source gives them in different places.

Series [1] in a line: Hepatocyte stability assay, mouse. It is filed as in vitro ADME. To be noted: male, CD-1, pooled hepatocytes. On the procedure: (§1) Test and control compounds were incubated with hepatocytes at 37° C. Aliquots were removed at 6 timepoints over a one hour period. Samples were centrifuged and the supernatant fractions analysed for parent compound by mass spectrometry (LC-MS/MS).
(§2) The amount of compound remaining (expressed as %) was determined from the MS response in each sample relative to that in the T=0 samples, and used to determine the half-life and intrinsic clearance of the compound.

Series [2] is described as follows: Hepatocyte stability assay, rat. The class given is in vitro ADME. Conditions: male, Sprague-Dawley, pooled hepatocytes. The procedure: as §1, §2
Series [3] in a line: Hepatocyte stability assay, dog. The class given is in vitro ADME. To be noted: male, Beagle, pooled hepatocytes. On the procedure: as §1, §2
Series [4] can be described thus: Hepatocyte stability assay, human. It is filed as in vitro ADME. To be noted: both sexes, pooled hepatocytes; for half-life: human. The procedure: as §1, §2
Series [5] has as its system pSTAT3 in IL-22 stimulated HT29 cells. Briefly: pSTAT3 inhibition in response to IL-22 stimulation in serum starved HT29 cells. Conditions: Homo sapiens, HT-29. It is filed as cell-based. The procedure: HT29 cells were serum starved overnight before the four test compounds were diluted to generate a 9-point semi-log dose dilution with a top concentration of 10 μM, plus vehicle control. HT29 cells were incubated with the test compounds for 20 minutes at 37° C. HT29 cells were incubated for a further 15 minutes with 10 ng/ml human IL-22 before cells were fixed with 4% PFA for 10 minutes, and 90% methanol for 30 minutes before being labelled with a phospho-STAT3Y705 antibody (CST #9145). Cells were rinsed three times using 0.5% BSA/PBS solution before being incubated with Alexa-488 anti-rabbit secondary antibodies.
Mean fluorescence intensity of phospho-STAT3 in single cells was analysed by flow cytometry using an Intellicyt iQue instrument and FlowJo software. The IC50 was determined using a four-parameter analysis following removal of background signal and normalisation to the DMSO control.

The target in series [6] is TYK2 kinase (Homo sapiens (Human), UniProt P29597). Briefly: TYK2 kinase inhibition assay (33P-ATP filter binding, Reaction Biology). The class given is biochemical. To be noted: ratio of IC50 to TYK2 IC50. On the procedure: (§3) The compound of the formula (1) was assayed for its ability to inhibit TYK2 kinase and other JAK kinases.
TYK2 kinase, sequence (P29597 833-1187): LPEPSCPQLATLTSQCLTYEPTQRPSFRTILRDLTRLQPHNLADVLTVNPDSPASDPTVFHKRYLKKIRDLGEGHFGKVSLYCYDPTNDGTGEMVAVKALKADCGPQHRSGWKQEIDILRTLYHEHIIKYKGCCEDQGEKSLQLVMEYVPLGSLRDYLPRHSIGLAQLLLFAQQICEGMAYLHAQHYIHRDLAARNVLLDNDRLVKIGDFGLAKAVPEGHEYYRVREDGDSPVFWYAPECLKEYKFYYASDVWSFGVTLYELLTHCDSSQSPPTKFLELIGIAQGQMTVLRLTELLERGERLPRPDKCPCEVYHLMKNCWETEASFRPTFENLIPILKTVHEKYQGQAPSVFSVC
(§4) Substrates and kinases used in the assays are identified in Table 12 below.
(§5) Kinase assays were performed at Reaction Biology Corp., Malvern, Pennsylvania, USA, using the general procedure set out below. In the assays, the ATP concentration was 100 μM and the top compound concentrations were 10 μM.
(§6) Note that the TYK2 and JAK kinase data in Table 7 on page 61 of WO 2015/032423 were generated using an assay in which the ATP concentration was 10 μM whereas, as indicated above, the assay described in the protocol below used an ATP concentration of 100 μM. […]

Series [7] has as its target JAK1 (Homo sapiens (Human), UniProt P23458). Kind of series: JAK1 kinase inhibition assay (33P-ATP filter binding, Reaction Biology). To be noted: ratio of IC50 to TYK2 IC50. It is filed as biochemical. On the procedure: as §3, §4, §5, §6
The subject of series [8] is JAK2. Kind of series: JAK2 kinase inhibition assay (33P-ATP filter binding, Reaction Biology). It is filed as biochemical. On the procedure: as §3, §4, §5, §6
The target of series [9] is JAK3 (Homo sapiens (Human), UniProt P52333). Briefly: JAK3 kinase inhibition assay (33P-ATP filter binding, Reaction Biology). The class given is biochemical. The procedure:
as §3, §4, §5, §6

Series [10] in a line: Solubility at 25° C. by HPLC of filtrates after equilibration of Form A in solvents. Conditions: for solubility: 25 °C, organic solvent or mixture, thermodynamic from solid. The class given is physicochemical.
Series [11] can be described thus: Dynamic vapour sorption (DVS). It is filed as physicochemical. On the procedure: Sorption isotherms were obtained using a Hiden Isochema moisture sorption analyser (model IGAsorp), controlled by IGAsorp Systems Software V6.50.48. The sample was maintained at a constant temperature (25° C.) by the instrument controls. The humidity was controlled by mixing streams of dry and wet nitrogen, with a total flow of 250 ml·min^−1. The instrument was verified for relative humidity content by measuring three calibrated Rotronic salt solutions (10-50-88%). The weight change of the sample was monitored as a function of humidity by a microbalance (accuracy +/−0.005 mg). A defined amount of sample was placed in a tared mesh stainless steel basket under ambient conditions. A full experimental cycle typically consisted of three scans (sorption, desorption and sorption) at a constant temperature (25° C.) and 10% RH intervals over a 0-90% range (60 minutes for each humidity level).

Series [12] can be described thus: Compression stability test (10×10^4N force). It is filed as physicochemical. On the procedure: Compression stability tests were carried out on samples from two batches of crystalline Form A and samples from two batches of Crystalline Form B. One pair of samples of Form A and Form B was subjected to compression under 10×10^4N force for 23 and 23¾ hours respectively to assess the impact upon form fate and chemical stability.
The other pair of samples of Form A and Form B was subjected to similar compression pressures over an extended duration of 7 days to assess the impact of prolonged compression force upon form fate and chemical stability.

Setting [13] is: Human hepatocytes, read-out: T1/2.
Where [14] appears, read: IL-22 stimulated serum starved HT29 cells, read-out: pSTAT3 inhibition IC50.

JAK3, sequence (P52333 781-1124): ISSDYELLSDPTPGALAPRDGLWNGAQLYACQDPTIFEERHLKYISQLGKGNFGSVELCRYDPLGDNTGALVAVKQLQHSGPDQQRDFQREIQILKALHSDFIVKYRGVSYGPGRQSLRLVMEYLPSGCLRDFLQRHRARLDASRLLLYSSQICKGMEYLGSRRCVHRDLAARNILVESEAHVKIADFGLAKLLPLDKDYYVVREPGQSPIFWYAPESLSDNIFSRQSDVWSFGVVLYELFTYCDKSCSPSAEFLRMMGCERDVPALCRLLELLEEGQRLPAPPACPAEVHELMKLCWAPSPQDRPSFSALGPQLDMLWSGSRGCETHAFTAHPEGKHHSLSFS
JAK1, sequence (P23458 866-1154): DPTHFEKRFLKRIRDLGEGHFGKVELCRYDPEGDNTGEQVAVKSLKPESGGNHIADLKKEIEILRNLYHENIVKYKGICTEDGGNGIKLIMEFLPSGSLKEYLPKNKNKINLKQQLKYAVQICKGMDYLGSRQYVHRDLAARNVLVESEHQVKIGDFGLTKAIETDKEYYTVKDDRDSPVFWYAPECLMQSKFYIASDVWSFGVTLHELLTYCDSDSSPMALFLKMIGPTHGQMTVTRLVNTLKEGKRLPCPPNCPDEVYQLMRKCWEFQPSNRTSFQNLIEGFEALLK

Take `NC(=O)c1nc(-c2c(Cl)cccc2Cl)oc1Nc1ccc(C(=O)N2CCOCC2)cc1` [Comparative Compound B, 2-(2,6-dichloro-phenyl)-5-[4-(morpholine-4-carbonyl)-phenylamino]-oxazole-4-carboxylic acid amide, reference compound]: the half-life in [1] was 27 min; in series [2] it was 14.8 min; in [3], 53.5 min; in [4] (setting [13]) it was 124 min; in [4] (human hepatocytes, read-out: half-life in humans), > 120 min. Further, the 50% inhibitory concentration (IC50) (as a rule, the concentration that gives 50% inhibition) in series [5] (setting [14]) came to 53 nM.

Regarding `NC(=O)c1nc(-c2c(Cl)cccc2Cl)oc1Nc1ccc(C(=O)N2CCS(=O)(=O)CC2)cc1` [Compound (1), 2-(2,6-dichlorophenyl)-5-[4-(1,1-dioxo-1,4-thiazinane-4-carbonyl)anilino]oxazole-4-carboxamide], the “Selectivity v TYK2: TYK2” value in series [6] worked out at 1. The “Selectivity v TYK2: JAK1” value in series [7] is given as 10.5. Moreover, the “selectivity for TYK2 compared to JAK2” value in series [8] (biochemical assays) is listed as “approximately 25 fold”. For the same molecule, the “Selectivity v TYK2: JAK2” value in [8] (ratio of IC50 to TYK2 IC50) is recorded as 26.3. Moreover, the “selectivity for TYK2 compared to JAK3” value in series [9] (biochemical assays) is ~110 fold. For the same molecule, the “Selectivity v TYK2: JAK3” value in series [9] (ratio of IC50 to TYK2 IC50) was 111.6. Moreover, the half-life in [1] was 65.3 min; in [2], 30.6 min; in series [3] it was > 460 min; in series [4] (setting [13]) it was > 460 min. For the same molecule, the hepatocyte CLint in series [3] and in series [4] (Human hepatocytes) was < 3 µL/min/1e6 cells in each case. Besides, the IC50 is < 100 nM in series [5] (IL-22 stimulated HT29 cells, read-out: IC50 against pSTAT3 inhibition) and 16 nM in series [5] (setting [14]). For the same molecule, the Solubility (commonly how much of the substance goes into solution per volume) at 25° C. is < 1000 µg/mL in series [10] (2-Chlorobutane); > 10000 µg/mL in series [10] (4:1 THF/water); < 1000 µg/mL in series [10] (Cyclohexane); > 10000 µg/mL in series [10] (DCM); > 10000 µg/mL in [10] (Nitromethane); > 10000 µg/mL in series [10] (THF). For the same molecule, the “Solubility at 25° C.” value in series [10] (Water) was < 1000 µg/mL. Also, the solubility (usually the dissolved amount per volume that the medium holds) in [10] (TBME) was < 1000 µg/mL; in series [10] (anisole), > 10000 µg/mL; in series [10] (heptane, no peak detected in the chromatogram for the filtrate (×100 dilution)), < 1000 µg/mL.

In the case of `NC(=O)c1nc(-c2c(Cl)cccc2Cl)oc1Nc1ccc(C(=O)N2CCS(=O)(=O)CC2)cc1` [Form B, 2-(2,6-dichlorophenyl)-5-[4-(1,1-dioxo-1,4-thiazinane-4-carbonyl)anilino]oxazole-4-carboxamide], the “XRPD examination of the solid isolated post-DVS” value in [11] (at 0 and 90% RH) is reported as “no clear evidence of form modification”. In series [11] (from 0 to 90% RH, 25° C.), the “DVS total weight gain upon sorption” value is “ca. 0.57 wt %”. Also, the “DVS weight reduction upon the first desorption” value in series [11] (from 50 to 0% RH, 25° C.) is reported as “ca. 0.38 wt %”. Further, the DVS hysteresis result in [11] (repeat desorption and sorption, most evident between 10 and 60% RH) is “ca. 0.11 wt %”. Further, the “HPLC assessment post-compression (chemical stability)” value in [12] (compression for 7 days) is reported as “no change to the impurity profile; also recorded: no discernible chemical degradation”; in series [12] (compression for ca. 1 day (23 / 23¾ hours), 10×10^4N), “no change to the impurity profile; also recorded: no discernible chemical degradation”. Further, the “XRPD examination of solids isolated post-compression (form fate)” value in [12] (compression for both ca. 1 and 7 days) was “diffraction pattern matching the input Pattern B but of reduced diffraction resolution”.
